{"source": "ChEMBL document CHEMBL4011620", "about": "“Design and Discovery of N-(2-Methyl-5'-morpholino-6'-((tetrahydro-2H-pyran-4-yl)oxy)-[3,3'-bipyridin]-5-yl)-3-(trifluoromethyl)benzamide (RAF709): A Potent, Selective, and Efficacious RAF Inhibitor Targeting RAS Mutant Cancers” (J Med Chem, 2017)", "key": {"[1]": {"assay": "Protein binding in rat plasma", "type": "ADME, cell-free", "details": "read-out: PPB (converted)"}, "[2]": {"test_system": "Mus musculus", "assay": "In vivo inhibition of ERK1/2 phosphorylation at Thr202/Tyr204 and Thr185/Tyr187 in mouse xenografted with human Calu6 cells at 10 to 30 mg/kg, po administered as single dose measured at 24 hrs post dose", "type": "functional, organism-based"}, "[3]": {"assay": "Solubility of compound at pH 6.8 by shake-flask assay", "details": "buffer"}, "[4]": {"test_system": "Mus musculus", "assay": "Time during which free plasma concentration exceeds cellular in vitro EC50 for CRAF-mediated ERK phosphorylation in mouse xenografted with human Calu6 cells at 200 mg/kg, po administered as single dose"}, "[5]": {"test_system": "Mus musculus", "assay": "Toxicity in nude mouse xenografted with human PC3 cells assessed as body weight loss at 200 mg/kg/day, po administered from day 12 until day 25 post tumor implantation measured twice per week of compound dosing", "type": "organism-based", "details": "in vivo"}, "[6]": {"molecular_target": "Serine/threonine-protein kinase B-raf (Homo sapiens, UniProt P15056)", "sequence (P15056 whole entry)": "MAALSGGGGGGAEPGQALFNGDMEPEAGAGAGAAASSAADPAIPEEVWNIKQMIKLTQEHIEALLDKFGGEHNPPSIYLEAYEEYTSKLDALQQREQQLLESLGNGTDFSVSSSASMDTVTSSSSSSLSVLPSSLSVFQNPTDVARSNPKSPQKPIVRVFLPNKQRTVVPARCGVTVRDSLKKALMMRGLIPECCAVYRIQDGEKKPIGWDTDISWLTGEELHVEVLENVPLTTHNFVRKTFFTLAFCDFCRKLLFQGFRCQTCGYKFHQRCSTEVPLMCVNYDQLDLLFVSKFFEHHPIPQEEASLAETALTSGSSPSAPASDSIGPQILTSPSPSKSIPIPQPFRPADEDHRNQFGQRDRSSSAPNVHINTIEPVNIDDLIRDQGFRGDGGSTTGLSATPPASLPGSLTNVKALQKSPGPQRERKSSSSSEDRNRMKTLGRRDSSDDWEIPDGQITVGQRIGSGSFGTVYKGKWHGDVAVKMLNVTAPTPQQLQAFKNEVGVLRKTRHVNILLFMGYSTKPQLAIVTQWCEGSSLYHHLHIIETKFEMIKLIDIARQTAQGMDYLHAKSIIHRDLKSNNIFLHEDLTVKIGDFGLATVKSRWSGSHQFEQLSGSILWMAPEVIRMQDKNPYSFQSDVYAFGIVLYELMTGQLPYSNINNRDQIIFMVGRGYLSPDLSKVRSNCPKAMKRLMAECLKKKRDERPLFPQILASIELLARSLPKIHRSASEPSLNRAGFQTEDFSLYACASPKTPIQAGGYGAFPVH", "assay": "Inhibition of full-length BRAF (unknown origin)"}, "[7]": {"test_system": "Mus musculus", "assay": "Toxicity in nude mouse xenografted with human PC3 cells assessed as mortality at 200 mg/kg/day, po administered from day 12 until day 25 post tumor implantation", "type": "organism-based", "details": "in vivo"}, "[8]": {"test_system": "Calu-6", "assay": "Antiproliferative activity against human Calu6 cells harboring KRAS Q61K mutant assessed as reduction cell viability after 72 hrs by CellTiter-Glo assay", "type": "functional, cell-based", "details": "Calu-6, 72 h"}, "[9]": {"assay": "Apparent permeability across basolateral to apical side in human Caco2 cells at pH 7.4 by LC/MS/MS analysis", "details": "Caco-2, pH 7.4"}, "[10]": {"assay": "Cmax in mouse at 3 mg/kg, po", "type": "ADME, organism-based", "design": "dose 3 mg/kg, route oral", "details": "in vivo"}, "[11]": {"molecular_target": "RAF proto-oncogene serine/threonine-protein kinase (Homo sapiens, UniProt P04049)", "sequence (P04049 whole entry)": "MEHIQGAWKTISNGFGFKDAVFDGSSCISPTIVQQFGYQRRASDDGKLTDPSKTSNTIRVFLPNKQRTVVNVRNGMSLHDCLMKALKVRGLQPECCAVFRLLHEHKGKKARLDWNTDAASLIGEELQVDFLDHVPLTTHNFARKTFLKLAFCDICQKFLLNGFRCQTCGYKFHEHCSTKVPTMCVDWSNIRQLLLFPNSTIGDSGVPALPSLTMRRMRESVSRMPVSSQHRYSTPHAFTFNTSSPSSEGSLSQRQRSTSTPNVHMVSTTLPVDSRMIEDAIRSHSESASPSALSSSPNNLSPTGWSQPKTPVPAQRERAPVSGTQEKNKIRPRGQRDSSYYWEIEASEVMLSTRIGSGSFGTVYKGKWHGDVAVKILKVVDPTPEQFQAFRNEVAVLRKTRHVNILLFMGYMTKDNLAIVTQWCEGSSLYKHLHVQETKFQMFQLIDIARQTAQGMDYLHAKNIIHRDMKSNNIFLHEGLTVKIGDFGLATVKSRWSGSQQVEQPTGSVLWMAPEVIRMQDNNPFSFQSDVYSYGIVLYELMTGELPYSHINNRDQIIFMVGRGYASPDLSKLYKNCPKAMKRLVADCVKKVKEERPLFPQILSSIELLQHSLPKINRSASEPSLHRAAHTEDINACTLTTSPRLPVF", "assay": "Activation of CRAF in human Calu6 cells assessed as increase in MEK phosphorylation after 2 hrs by FRET assay", "type": "cell-based"}, "[12]": {"assay": "Protein binding in dog plasma", "type": "ADME, cell-free, Canis lupus familiaris", "details": "read-out: PPB (converted)"}, "[13]": {"molecular_target": "Platelet-derived growth factor receptor alpha (Homo sapiens) (UniProt P16234)", "sequence (P16234 whole entry, the tested form may be a part)": "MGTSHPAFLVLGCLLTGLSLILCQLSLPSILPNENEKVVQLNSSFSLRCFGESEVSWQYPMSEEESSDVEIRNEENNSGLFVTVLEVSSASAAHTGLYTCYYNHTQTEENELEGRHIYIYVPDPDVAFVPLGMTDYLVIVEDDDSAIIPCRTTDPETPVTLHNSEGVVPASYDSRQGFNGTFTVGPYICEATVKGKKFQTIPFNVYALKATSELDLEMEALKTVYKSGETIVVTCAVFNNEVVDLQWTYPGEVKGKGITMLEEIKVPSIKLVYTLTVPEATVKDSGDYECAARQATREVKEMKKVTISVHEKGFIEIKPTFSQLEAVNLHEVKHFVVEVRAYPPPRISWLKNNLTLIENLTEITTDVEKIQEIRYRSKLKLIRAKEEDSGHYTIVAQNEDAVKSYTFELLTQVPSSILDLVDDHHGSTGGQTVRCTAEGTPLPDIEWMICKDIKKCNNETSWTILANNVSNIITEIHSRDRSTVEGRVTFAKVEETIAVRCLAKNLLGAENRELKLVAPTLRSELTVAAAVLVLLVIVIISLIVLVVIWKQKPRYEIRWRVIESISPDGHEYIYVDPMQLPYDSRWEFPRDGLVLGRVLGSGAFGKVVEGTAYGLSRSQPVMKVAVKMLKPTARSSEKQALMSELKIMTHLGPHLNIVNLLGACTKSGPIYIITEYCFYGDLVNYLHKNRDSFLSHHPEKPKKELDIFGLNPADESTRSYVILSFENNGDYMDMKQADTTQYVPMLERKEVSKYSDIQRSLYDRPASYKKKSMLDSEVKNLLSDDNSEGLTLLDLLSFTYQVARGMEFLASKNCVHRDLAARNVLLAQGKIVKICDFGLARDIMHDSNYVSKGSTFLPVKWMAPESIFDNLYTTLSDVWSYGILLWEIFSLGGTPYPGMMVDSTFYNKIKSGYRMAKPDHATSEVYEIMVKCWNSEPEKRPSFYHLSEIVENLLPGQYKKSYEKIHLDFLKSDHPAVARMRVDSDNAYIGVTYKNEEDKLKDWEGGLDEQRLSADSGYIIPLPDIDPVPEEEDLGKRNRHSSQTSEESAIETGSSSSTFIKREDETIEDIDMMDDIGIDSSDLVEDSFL", "assay": "Binding affinity to human PDGFRalpha (330 to 640 residues) expressed in mammalian expression system at 1 uM by kinome scan assay relative to control"}, "[14]": {"assay": "Oral bioavailability in rat at 10 mg/kg", "type": "ADME, organism-based", "details": "in vivo"}, "[15]": {"assay": "Volume of distribution at steady state in rat at 3 mg/kg, iv or 10 mg/kg, po", "type": "ADME, organism-based", "details": "in vivo, read-out: Vdss"}, "[16]": {"assay": "Volume of distribution at steady state in mouse at 1 mg/kg, iv or 3 mg/kg, po", "type": "ADME, organism-based", "details": "in vivo, read-out: Vdss"}, "[17]": {"assay": "Clearance in dog at 0.3 mg/kg, iv or 1 mg/kg, po", "type": "ADME, organism-based, Canis lupus familiaris", "details": "in vivo"}}, "note": "Activity calls are given as the source filed them. The rule behind the calls is not given here."}
{"smiles": "Cc1ncc(NC(=O)c2cccc(C(F)(F)F)c2)cc1-c1cnc(OC2CCOCC2)c(N2CCOCC2)c1", "values": [{"measurement": "fraction unbound", "setting": "[1]", "value": 0.02}, {"measurement": "inhibition", "setting": "[2]", "value": "inactive"}, {"measurement": "solubility thermodynamic", "setting": "[3]", "value": 200, "unit": "µM"}, {"measurement": "Time", "setting": "[4]", "value": 24, "unit": "h"}, {"measurement": "Activity", "setting": "[5]", "value": "Non-Toxic"}, {"measurement": "IC50", "setting": "[6]", "value": 0.4, "unit": "nM"}, {"measurement": "Activity", "setting": "[7]", "value": "Non-Toxic"}, {"measurement": "EC50", "setting": "[8]", "value": 950, "unit": "nM"}, {"measurement": "Papp B→A", "setting": "[9]", "value": 13, "unit": "×10⁻⁶ cm/s"}, {"measurement": "Cmax", "setting": "[10]", "value": 1000, "unit": "nM"}, {"measurement": "Activity", "setting": "[11]", "value": "Not Active"}, {"measurement": "fraction unbound", "setting": "[12]", "value": 0.02}, {"measurement": "Activity", "setting": "[13]", "value": 96, "unit": "%"}, {"measurement": "bioavailability", "setting": "[14]", "value": 24, "unit": "%"}, {"measurement": "Vd", "setting": "[15]", "value": 3.5, "unit": "L/kg"}, {"measurement": "Vd", "setting": "[16]", "value": 1.2, "unit": "L/kg"}, {"measurement": "clearance", "setting": "[17]", "value": 14, "unit": "mL/min/kg"}]}
